Measured values: PMC5867678 (Journal of Medicinal Chemistry, 2018)
Entries after “also recorded” stand apart in the source; their conditions may differ. Like-named read-outs stand apart in the source and are kept apart here. Values belong to the compound of their own block, whether it stands above or below them.

How the values were obtained:
[1] = Mouse pharmacokinetics; conditions: in vivo; for AUC(0-t) / Cmax: female, BALB/c, 40 mg/kg; for AUC(0-t) / Cmax / bioavailability: po; for bioavailability: male
[2] = tested on: Salmonella typhimurium (TA98 and TA100); conditions: cited from earlier work
[3] = tested on: Salmonella typhimurium (TA98 and TA100); assay: Ames test (Mini-Ames reverse mutation screen); format: cell-based; conditions: strains TA98 and TA100, with or without S9
From the text: Two strains of Salmonella typhimurium (TA98 and TA100) were employed, in the presence and absence of metabolic activation (rat liver S9). Positive controls (2-aminoanthracene, 2-nitrofluorene, and sodium azide) and a negative (DMSO solvent) control were included.

[4] = Rat pharmacokinetics; parameters: species or system Sprague-Dawley rats; conditions: male, Sprague-Dawley, in vivo, po, 40 mg/kg
Experimental: All studies were conducted in fasted animals (either male Sprague-Dawley rats or female golden Syrian hamsters) by WuXi AppTec (Shanghai) Co., Ltd. Intravenous dosing (at 1 mg/kg for rats and 2 mg/kg for hamsters) utilized a solution formulation of 20% NMP and 40% PEG-400 in citrate buffer (pH 3). In rats, oral dosing (at 40–50 mg/kg) was as a suspension in 0.08% Tween 80 and 0.5% CMC in water, whereas PEG-400 was the vehicle employed for oral dosing in hamsters (at 40–50 mg/kg). Plasma samples (at 0.083 for iv only, 0.25, 0.5, 1, 2, 4, 8, and 24 h) were analyzed by LC–MS/MS, and the PK parameters were calculated using Phoenix WinNonlin software (version 6.3).

[5] = Permeability assay in MDCK-MDR1 cells; conditions: dog
[6] = Microsomal stability, human liver microsomes; format: in vitro ADME; conditions: pooled human liver microsomes; for remaining at 0.5 h, 0.5 μM: 30 min (data in parentheses)
[7] = Microsomal stability, CD-1 mouse liver microsomes; format: in vitro ADME; conditions: for remaining at 0.5 h, 0.5 μM: 30 min (data in parentheses)
[8] = tested on: Caco-2; parameters: method as in PMID 25261338; conditions: Caco-2 data; cited from earlier work
[9] = cited from earlier work
[10] = human, in vivo; cited from earlier work
[11] = Hamster pharmacokinetics; parameters: species or system golden Syrian hamsters; conditions: female, golden Syrian, in vivo, po

SMILES: O=[N+]([O-])c1cn2c(n1)OC[C@H](OCc1ccc(-c3ccc(OC(F)(F)F)cc3F)cn1)C2 [R-89]
AUC(0-t) [1]: 265 µg·h/mL | Cmax [1]: 32000 ng/mL

SMILES: CSc1ccc(OCc2ncc([N+](=O)[O-])n2C)cc1 [fexinidazole]
Ames test result [2]: positive

SMILES: O=[N+]([O-])c1cn2c(n1)OC[C@H](Oc1ccc(OC(F)(F)F)cc1)C2 [R-6, (6R)-2-Nitro-6-[4-(trifluoromethoxy)phenoxy]-6,7-dihydro-5H-imidazo[2,1-b][1,3]oxazine]
mutagenic effect (Ames test) [3]: negative; also recorded: no ^d | AUC(0-t) [1]: 272 µg·h/mL | Cmax [1]: 21000 ng/mL | AUC(0-t) [4]: 80600 ng·h/mL | Cmax [4]: 5200 ng/mL | Papp A→B at […], 2 µM [5]: 32.4 ×10⁻⁶ cm/s

SMILES: O=[N+]([O-])c1cn2c(n1)OCC(COc1ccc(-c3ccc(OC(F)(F)F)cc3)nc1)C2 (stereo not drawn) [compound 116]
bioavailability ([1]; Swiss albino): 11 to 15%

SMILES: O=[N+]([O-])c1cn2c(n1)OC[C@@H](OCc1ccc(-c3ccc(OC(F)F)cc3)cn1)C2 [S-92]
remaining at 0.5 h, 0.5 μM [6]: > 70% | remaining at 0.5 h, 0.5 μM [7]: > 70%

SMILES: C[C@]1(COc2ccc(OC(F)(F)F)cc2)Cn2cc([N+](=O)[O-])nc2O1 [compound 4]
permeability, Papp A to B [8]: 22.6 ×10^–6 cm/s | permeability, Papp B to A [8]: 24.7 ×10^–6 cm/s | mutagenic effect (Ames test) [2]: no | LogD (measured) [9]: 3.10

SMILES: O=[N+]([O-])c1cn2c(n1)OC[C@H](Oc1ccc(C(F)(F)F)cn1)C2 [R-136, (6R)-2-Nitro-6-{[5-(trifluoromethyl)pyridin-2-yl]oxy}-6,7-dihydro-5H-imidazo[2,1-b][1,3]oxazine]
remaining at 1 h, 1 μM [6]: 90 to 92% | remaining at 1 h, 1 μM [7]: 90 to 92% | mutagenic effect (Ames test) [3]: positive

SMILES: O=[N+]([O-])c1cn2c(n1)OC[C@@H](OCc1ccc(-c3ccc(OC(F)(F)F)cc3F)cn1)C2 [S-89]
remaining at 0.5 h, 0.5 μM [6]: > 70% | remaining at 0.5 h, 0.5 μM [7]: > 70%

SMILES: O=[N+]([O-])c1cn2c(n1)OC[C@@H](OCc1cccc(-c3ccc(F)cc3)n1)C2 [S-81]
remaining at 0.5 h, 0.5 μM [6]: > 70% | remaining at 0.5 h, 0.5 μM [7]: > 70%

SMILES: O=[N+]([O-])c1cn2c(n1)OC[C@@H](OCc1ccc(OC(F)(F)F)cc1)C2 [S-1, (6S)-2-nitro-6-{[4-(trifluoromethoxy)benzyl]oxy}-6,7-dihydro-5H-imidazo[2,1-b][1,3]oxazine]
half-life in clinical trials for TB [10]: 16 to 18 h

SMILES: O=[N+]([O-])c1cn2c(n1)OC[C@H](OCc1ccc(-c3ccc(F)cc3F)nc1)C2 [R-106]
bioavailability [11]: 21 to 37%

SMILES: O=[N+]([O-])c1cn2c(n1)OC[C@H](OCc1ccc(-c3ccc(OC(F)(F)F)cc3)cn1)C2 [R-84]
AUC(0-t) [1]: 211 µg·h/mL | Cmax [1]: 16000 ng/mL

SMILES: O=[N+]([O-])c1cn2c(n1)OCC(COc1ccc(OC(F)(F)F)cc1)C2 (stereo not drawn) [compound 24]
half-life ([1]; Swiss albino, iv, 1 mg/kg): 120 min

SMILES: O=[N+]([O-])c1cn2c(n1)OC[C@@H](OCc1cccc(-c3ccc(OC(F)(F)F)cc3)n1)C2 [S-77]
remaining at 0.5 h, 0.5 μM [6]: > 70% | remaining at 0.5 h, 0.5 μM [7]: > 70%

SMILES: O=[N+]([O-])c1cn2c(n1)OC[C@@H](OCc1ccc(-c3ccc(OC(F)(F)F)cc3Cl)cn1)C2 [S-91]
remaining at 0.5 h, 0.5 μM [6]: > 70% | remaining at 0.5 h, 0.5 μM [7]: > 70%

bioavailability ([1]; Swiss albino): 11 to 15%
SMILES: O=[N+]([O-])c1cn2c(n1)OCC(COc1ccc(-c3ccc(F)cc3)nc1)C2 (stereo not drawn) [compound 117]

SMILES: O=[N+]([O-])c1cn2c(n1)OC[C@H](OCc1ccc(-c3ccc(F)cc3F)cn1)C2 [R-96]
remaining at 1 h, 1 μM [6]: 57 to 59% | remaining at 1 h, 1 μM [7]: 57 to 59% | bioavailability [11]: 21 to 37%
